# “And” between values parts separate entries of the source, which are not always exact repeats. Equal entries are not always repeated.
# Tests used:
# B. theta = experiment: RNA-seq after MTX treatment; format: cell-based, Bacteroides thetaiotaomicron; settings: MTX 100 μg/ml
# Protocol: Genomes were obtained from NCBI's GenBank Assembly database. Culture media was composed of BHI+and allowed to equilibrate in an anaerobic environment prior to use. Briefly, bacteria were cultured in BHI+at 37° C. in an anaerobic chamber. Cultures for each isolate were grown to mid-exponential (achieving an OD600˜0.5), aliquoted into triplicates, treated for 30 minutes with either DMSO or MTX 100 μg/ml, and then removed from the anaerobic chamber. […]
# Total RNA was subjected to rRNA depletion using Ribo-Zero Bacterial rRNA Depletion (Illumina, catalog #: MRZB12424), following the manufacturer's protocol. […] For each sample, fastq files are available in NCBI's Sequence Read Archive (SRA), accession number PRJNA656577.
# Reads were trimmed using Trimmomatic (v0.32) (Bolger, A. M., et al., (2014), Bioinformatics 30, 2114-2120), and ribosomal reads were removed using SortMeRNA (v2.1) (Kopylova, E., et al., (2012), Bioinformatics 28, 3211-3217). Reads were mapped to reference genomes using Bowtie2 (Langmead, B., and Salzberg, S. L. (2012), Nat Methods 9, 357-359) using the following options: -q, —met file, —end-to-end, —sensitive. […]
# [1] = Predicted concentration of MTX in the gastrointestinal (GI) tract; design: species or system human; settings: for predicted concentration of MTX in the proximal GI tract: RA oral dose 25 mg divided by 250 ml
# Protocol: The predicted concentration of MTX in the proximal GI tract was estimated by taking the oral dose used for rheumatoid arthritis (25 mg) and dividing it by 250 ml Dahlgren, D., and Lennernas, H. (2019), Pharmaceutics 11, 411; Dressman, J. B., et al., (1985), J Pharm Sci 74, 588-589; Shekhawat, P.B., and Pokharkar, V. B. (2017), Acta Pharm Sin B 7, 260-280), giving a concentration of 100 μg/ml or 220 μM. Further refinement of this estimate was done based on variations in the absorption of oral MTX in the proximal intestine (Grim, J., et al., (2003), Clin Pharmacokinet 42, 139-151), where it is estimated that 10-70% of the dose is not absorbed and instead delivered to the distal GI tract in RA patients. Thus, the estimated range of MTX in the GI tract was calculated to be 10-70 μg/ml with 100 μg/ml being the highest predicted concentration (prior to absorption by the host). When considering the doses used for cancer therapy (50 mg/day of oral MTX), the predicted range is 20-140 μg/ml with 200 μg/ml being the highest dose. MTX can also be given intravenously (IV) or intrathecally for the treatment of cancer (Treon, S. P., and Chabner, B. A. (1996), Clin Chem 42, 1322-1329), and is typically given at much higher doses, including as high as 800-1000 mg IV over 24 hours for the treatment of cancers such as lymphoma or acute lymphoblastic leukemia. Assuming that 30% of this is enterohepatically circulated et al., (1982), Cancer Res 42, 1279-1282), then between 240 and 300 mg would enter the GI tract, and the predicted concentration in the GI tract would be between 960-1200 μg/ml.
# [2] = cancer therapy, 50 mg/day oral MTX
smiles,measurement,setting,value
"CN(Cc1cnc2nc(N)nc(N)c2n1)c1ccc(C(=O)N[C@@H](CCC(=O)O)C(=O)O)cc1 [MTX, methotrexate]",genes in the transcriptome affected,"B. theta; 30 minutes, padj<0.2, DESeq",83%
same,number of pathways enriched among differentially expressed transcripts,B. theta; transcripts with padj<0.2,57 pathways
same,predicted concentration in the GI tract,"[1]; 800-1000 mg IV over 24 hours, assuming 30% enterohepatically circulated",960 to 1200 µg/mL
same,estimated concentration of MTX in the proximal gastrointestinal (GI) tract,[1]; Example 2,22-220 μM and 10-100 μg/ml
same,estimated range of MTX in the GI tract,"[1]; RA dose, 10-70% of the dose not absorbed",10 to 70 µg/mL
same,predicted concentration of MTX in the proximal GI tract,[1],220 µM
same,predicted concentration of MTX in the proximal GI tract,"[1]; highest, prior to absorption",100 µg/mL
same,highest predicted concentration of MTX in the GI tract,[1]; [2],200 µg/mL
same,predicted range of MTX in the GI tract,[1]; [2],20 to 140 µg/mL

# Reference: patent US20220160712A1, “METHODS OF TREATING RHEUMATOID ARTHRITIS AND FOR PREDICTING THE RESPONSE TO METHOTREXATE” (CHAN ZUCKERBERG BIOHUB, INC., priority 2020, published 2022)
